Tests used:
Apc^Min/+ mouse = assay: Tumour burden in Apc^Min/+ mice; assay type: in vivo; conditions: for effect on tumour number, size or tumour burden compared to control mice: Apc^Min/+ mice fed control diet, sub-cutaneous injection
Protocol: To delineate how iron mediates colorectal carcinogenesis in-vivo, further experiments were carried out using the ‘Apc^Min/+’ mouse. These mice carry a mutation which disrupts the ability of the APC tumour suppressor to bind and turnover b-catenin, and the mice develop 100's of benign adenomas.
Apc^Min/+ mice were fed a standard control diet (n=17) or an iron deficient diet (n=11) immediately post weaning with tumour burden being assessed at 80 days of age. In addition mice were fed a high iron diet (standard control diet supplemented with 2% reduced pentacarbonyl iron (Harlan UK)) (n=6) but in these animals tumour burden was assessed at 45 days of age. A fourth group of Apc^Min/+ mice (n=9), were fed the standard control diet but upon reaching 50 days of age were injected sub-cutaneously with iron dextran (50 mgs) with tumour burden being assessed at 85 days of age. A fifth group of Apc^Min/+ mice (n=9), were fed the standard control diet and post weaning were injected daily sub-cutaneously with the systemic iron chelator desferioxamine (200 mgs/kg).

[1] = test system: normal human colonic cells; conditions: normal cells exposed to increased levels of iron; cited from earlier work
[2] = test system: cells containing a mutant APC protein; conditions: cells deficient in the APC protein exposed to iron; cited from earlier work

Compound	effect on tumour number, size or tumour burden compared to control mice (Apc^Min/+ mouse)	phenotypic effects [1]	cellular viability and proliferation [2]	tumour burden (Apc^Min/+ mouse; Apc^Min/+ mice on iron deficient diet co-administered with iron dextran)
CC(=O)N(O)CCCCCNC(=O)CCC(=O)N(O)CCCCCNC(=O)CCC(=O)N(O)CCCCCN [desferioxamine]	no effect	–	–	–
[Fe] [iron]	–	no phenotypic effects	increased	–
iron dextran	no effect	–	–	suppression
